Measurements as given in ChEMBL document CHEMBL5647694, “Novel orally bioavailable EZH1/2 dual inhibitors with greater antitumor efficacy than an EZH2 selective inhibitor” (Cancer Sci, 2017).

Columns and labels:
[1] = target: Lymphokine-activated killer T-cell-originated protein kinase (Homo sapiens) (UniProt Q96KB5); test: Inhibition of N-terminal GST-fused full length human PBK (1 to 322 residues) expressed in baculovirus expression system using Histone H3 peptide as substrate at 1 uM in presence of ATP by Mobility shift assay
[2] = target: Calcium/calmodulin-dependent protein kinase type 1 (Homo sapiens) (UniProt Q14012); test: Inhibition of N-terminal GST-tagged full length human CAMK1a (1 to 370 residues) expressed in baculovirus-infected Sf21 cells using GS peptide as substrate at 1 uM in presence of ATP by Mobility shift assay
[3] = target: Serine/threonine-protein kinase 38-like (Homo sapiens) (UniProt Q9Y2H1); test: Inhibition of N-terminal GST-fused full length human NDR2 (1 to 464 residues) expressed in baculovirus expression system using SGKtide as substrate at 1 uM in presence of ATP by Mobility shift assay
[4] = target: Tyrosine-protein kinase Blk (Homo sapiens) (UniProt P51451); test: Inhibition of N-terminal GST-fused full length human BLK (1 to 505 residues) expressed in baculovirus-infected Sf21 cells using Srctide as substrate at 1 uM in presence of ATP by Mobility shift assay
[5] = target: Protein-tyrosine kinase 6 (Homo sapiens) (UniProt Q13882); test: Inhibition of N-terminal GST-fused full length human BRK (2 to 451 residues) expressed in baculovirus-infected Sf21 cells using Blk/Lyntide as substrate at 1 uM in presence of ATP by Mobility shift assay
Sequence of Protein-tyrosine kinase 6 (Homo sapiens) (Q13882 whole entry, looked up, the tested form may be a part): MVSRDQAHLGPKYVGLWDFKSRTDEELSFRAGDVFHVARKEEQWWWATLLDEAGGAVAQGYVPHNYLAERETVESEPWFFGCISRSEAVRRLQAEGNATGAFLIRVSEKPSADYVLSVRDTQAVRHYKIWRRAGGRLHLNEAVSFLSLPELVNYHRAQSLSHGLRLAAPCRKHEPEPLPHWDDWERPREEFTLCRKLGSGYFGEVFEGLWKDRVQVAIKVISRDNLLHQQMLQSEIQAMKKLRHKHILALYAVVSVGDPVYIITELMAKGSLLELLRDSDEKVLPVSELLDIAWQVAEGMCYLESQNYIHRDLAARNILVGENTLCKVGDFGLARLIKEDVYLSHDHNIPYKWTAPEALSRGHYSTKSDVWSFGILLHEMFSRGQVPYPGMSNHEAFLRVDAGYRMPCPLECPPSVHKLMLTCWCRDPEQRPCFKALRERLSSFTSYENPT

[6] = target: Tyrosine-protein kinase Lyn (Homo sapiens) (UniProt P07948); test: Inhibition of N-terminal GST-tagged full length human LynA(1 to 512 residues ) expressed in baculovirus-infected Sf21 cells using Srctide as substrate at 1 uM in presence of ATP by Mobility shift assay
[7] = target: Serine/threonine-protein kinase MARK1 (Homo sapiens) (UniProt Q9P0L2); test: Inhibition of N-terminal GST-fused full length human MARK1 (1 to 795 residues) expressed in baculovirus expression system using CHKtide as substrate at 1 uM in presence of ATP by Mobility shift assay
Sequence of Serine/threonine-protein kinase MARK1 (Homo sapiens) (Q9P0L2 whole entry, looked up, the tested form may be a part): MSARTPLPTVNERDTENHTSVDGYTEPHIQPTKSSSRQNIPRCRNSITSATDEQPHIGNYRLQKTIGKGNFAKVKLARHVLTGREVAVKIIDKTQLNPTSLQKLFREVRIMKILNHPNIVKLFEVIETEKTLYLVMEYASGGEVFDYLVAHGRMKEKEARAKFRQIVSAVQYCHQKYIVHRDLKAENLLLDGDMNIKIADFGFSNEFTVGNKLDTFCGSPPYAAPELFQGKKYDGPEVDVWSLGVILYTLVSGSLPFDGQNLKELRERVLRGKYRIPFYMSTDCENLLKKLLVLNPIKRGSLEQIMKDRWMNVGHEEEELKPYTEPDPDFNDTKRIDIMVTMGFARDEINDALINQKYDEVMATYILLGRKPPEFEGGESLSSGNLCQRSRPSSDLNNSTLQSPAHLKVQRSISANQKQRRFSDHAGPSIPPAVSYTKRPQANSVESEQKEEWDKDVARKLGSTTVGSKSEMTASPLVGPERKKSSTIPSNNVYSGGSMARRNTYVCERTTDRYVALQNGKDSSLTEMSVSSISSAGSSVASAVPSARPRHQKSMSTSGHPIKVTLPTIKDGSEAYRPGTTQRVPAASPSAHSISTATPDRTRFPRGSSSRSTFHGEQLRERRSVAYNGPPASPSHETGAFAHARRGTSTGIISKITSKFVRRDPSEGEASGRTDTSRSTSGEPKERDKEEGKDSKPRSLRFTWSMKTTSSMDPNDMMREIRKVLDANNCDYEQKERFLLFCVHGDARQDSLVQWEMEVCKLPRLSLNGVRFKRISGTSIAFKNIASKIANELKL

[8] = target: Epithelial discoidin domain-containing receptor 1 (Homo sapiens) (UniProt Q08345); test: Inhibition of N-terminal GST-fused human DDR1 cytoplasmic domain (444 to 876 residues) expressed in baculovirus-infected Sf21 cells using IRS1 as substrate at 1 uM in presence of ATP by Mobility shift assay
[9] = target: Fibroblast growth factor receptor 2 (Homo sapiens) (UniProt P21802); test: Inhibition of N-terminal GST-fused human FGFR2 cytoplasmic domain (399 to 821 residues) expressed in baculovirus-infected Sf21 cells using CSKtide as substrate at 1 uM in presence of ATP by Mobility shift assay
[10] = target: Serine/threonine-protein kinase D3 (Homo sapiens) (UniProt O94806); test: Inhibition of N-terminal GST-fused full length human PKD3 (1 to 890 residues) expressed in baculovirus expression system using GS peptide as substrate at 1 uM in presence of ATP by Mobility shift assay
[11] = target: Serine/threonine-protein kinase Nek9 (Homo sapiens) (UniProt Q8TD19); test: Inhibition of N-terminal GST-fused truncated human NEK9 (1 to 346, 733 to 979 residues) expressed in baculovirus expression system using CDK7 peptide as substrate at 1 uM in presence of ATP by Mobility shift assay
[12] = target: CDK6/cyclin D3 (Homo sapiens) (UniProt P30281+Q00534); test: Inhibition of N-terminal GST-tagged full length human CDK6 (1 to 326 residues)/GST-tagged human CyclinD3 (1 to 292 residues) expressed in baculovirus-infected Sf21 cells using DYRKtide-F as substrate at 1 uM in presence of ATP by Mobility shift assay
[13] = target: AMPK alpha2/beta1/gamma1 (Homo sapiens) (UniProt P54646+P54619+Q9Y478); test: Inhibition of N-terminal GST-tagged full-length human AMPK alpha2 (1 to 552 residues)/N-terminal GST-tagged human AMPK beta1 (1 to 270 residues)/N-terminal GST-tagged human AMPK gamma1 (1 to 331 residues) expressed in baculovirus-infected Sf21 cells using SAMS peptide as substrate at 1 uM in presence of ATP by Mobility shift assay
[14] = target: ALK tyrosine kinase receptor (Homo sapiens) (UniProt Q9UM73); test: Inhibition of N-terminal GST-fused wild type human ALK cytoplasmic domain (1058 to 1620 residues ) expressed in baculovirus-infecetd Sf21 cells using Srctide as substrate at 1 uM in presence of ATP by Mobility shift assay
[15] = target: Serine/threonine-protein kinase SIK2 (Homo sapiens) (UniProt Q9H0K1); test: Inhibition of N-terminal GST-fused full length human QIK (1 to 926 residues) expressed in baculovirus expression system using AMARA peptide as substrate at 1 uM in presence of ATP by Mobility shift assay
[16] = target: Phosphorylase b kinase gamma catalytic chain, liver/testis isoform (Homo sapiens) (UniProt P15735); test: Inhibition of N-terminal GST-fused full length human PHKG2 (1 to 406 residues) expressed in baculovirus expression system using GS peptide as substrate at 1 uM in presence of ATP by Mobility shift assay
Sequence of Phosphorylase b kinase gamma catalytic chain, liver/testis isoform (Homo sapiens) (P15735 whole entry, the tested form may be a part, canonical isoform): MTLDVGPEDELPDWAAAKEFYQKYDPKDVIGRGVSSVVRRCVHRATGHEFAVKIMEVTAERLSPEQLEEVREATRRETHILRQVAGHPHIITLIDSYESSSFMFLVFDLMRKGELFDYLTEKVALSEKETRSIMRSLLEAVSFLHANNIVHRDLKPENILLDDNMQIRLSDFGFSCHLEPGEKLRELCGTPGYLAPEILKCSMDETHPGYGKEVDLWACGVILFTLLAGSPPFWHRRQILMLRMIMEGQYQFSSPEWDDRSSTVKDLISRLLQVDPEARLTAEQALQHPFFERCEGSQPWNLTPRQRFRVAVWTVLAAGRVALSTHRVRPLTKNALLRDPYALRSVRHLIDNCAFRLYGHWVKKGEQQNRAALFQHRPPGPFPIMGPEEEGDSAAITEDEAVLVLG

[17] = target: Cyclin-dependent kinase 5/CDK5 activator 1 (Homo sapiens) (UniProt Q00535+Q15078); test: Inhibition of N-terminal GST-tagged full length human CDK5 (1 to 292 residues)/N-terminal GST-tagged human p25 (99 to 307 residues) expressed in baculovirus-infected Sf21 cells using Modified Histone H1 as substrate at 1 uM in presence of ATP by Mobility shift assay
Sequence of Cyclin-dependent kinase 5/CDK5 activator 1 (Homo sapiens) (Q00535 whole entry, the tested form may be a part): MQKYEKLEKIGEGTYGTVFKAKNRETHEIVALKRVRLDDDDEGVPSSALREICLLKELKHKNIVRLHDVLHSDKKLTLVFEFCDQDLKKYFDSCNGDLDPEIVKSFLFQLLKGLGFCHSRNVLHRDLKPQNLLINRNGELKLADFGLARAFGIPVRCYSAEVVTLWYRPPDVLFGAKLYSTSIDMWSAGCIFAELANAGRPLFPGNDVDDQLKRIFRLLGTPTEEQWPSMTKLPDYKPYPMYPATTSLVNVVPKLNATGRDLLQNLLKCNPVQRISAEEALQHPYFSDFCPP
Sequence of Cyclin-dependent kinase 5/CDK5 activator 1 (Homo sapiens) (Q15078 99-307 partner limits assumed): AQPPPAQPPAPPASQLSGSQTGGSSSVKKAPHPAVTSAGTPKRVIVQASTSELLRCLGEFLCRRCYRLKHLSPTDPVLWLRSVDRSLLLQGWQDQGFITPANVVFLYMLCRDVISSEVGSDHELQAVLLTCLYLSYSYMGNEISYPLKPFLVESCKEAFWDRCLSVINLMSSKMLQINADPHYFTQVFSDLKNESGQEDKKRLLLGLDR

[18] = target: Serine/threonine-protein kinase Nek1 (Homo sapiens) (UniProt Q96PY6); test: Inhibition of N-terminal GST-fused human NEK1 catalytic domain (1 to 505 residues) expressed in baculovirus expression system using CDK7 peptide as substrate at 1 uM in presence of ATP by Mobility shift assay
Sequence of Serine/threonine-protein kinase Nek1 (Homo sapiens) (Q96PY6 whole entry, the tested form may be a part): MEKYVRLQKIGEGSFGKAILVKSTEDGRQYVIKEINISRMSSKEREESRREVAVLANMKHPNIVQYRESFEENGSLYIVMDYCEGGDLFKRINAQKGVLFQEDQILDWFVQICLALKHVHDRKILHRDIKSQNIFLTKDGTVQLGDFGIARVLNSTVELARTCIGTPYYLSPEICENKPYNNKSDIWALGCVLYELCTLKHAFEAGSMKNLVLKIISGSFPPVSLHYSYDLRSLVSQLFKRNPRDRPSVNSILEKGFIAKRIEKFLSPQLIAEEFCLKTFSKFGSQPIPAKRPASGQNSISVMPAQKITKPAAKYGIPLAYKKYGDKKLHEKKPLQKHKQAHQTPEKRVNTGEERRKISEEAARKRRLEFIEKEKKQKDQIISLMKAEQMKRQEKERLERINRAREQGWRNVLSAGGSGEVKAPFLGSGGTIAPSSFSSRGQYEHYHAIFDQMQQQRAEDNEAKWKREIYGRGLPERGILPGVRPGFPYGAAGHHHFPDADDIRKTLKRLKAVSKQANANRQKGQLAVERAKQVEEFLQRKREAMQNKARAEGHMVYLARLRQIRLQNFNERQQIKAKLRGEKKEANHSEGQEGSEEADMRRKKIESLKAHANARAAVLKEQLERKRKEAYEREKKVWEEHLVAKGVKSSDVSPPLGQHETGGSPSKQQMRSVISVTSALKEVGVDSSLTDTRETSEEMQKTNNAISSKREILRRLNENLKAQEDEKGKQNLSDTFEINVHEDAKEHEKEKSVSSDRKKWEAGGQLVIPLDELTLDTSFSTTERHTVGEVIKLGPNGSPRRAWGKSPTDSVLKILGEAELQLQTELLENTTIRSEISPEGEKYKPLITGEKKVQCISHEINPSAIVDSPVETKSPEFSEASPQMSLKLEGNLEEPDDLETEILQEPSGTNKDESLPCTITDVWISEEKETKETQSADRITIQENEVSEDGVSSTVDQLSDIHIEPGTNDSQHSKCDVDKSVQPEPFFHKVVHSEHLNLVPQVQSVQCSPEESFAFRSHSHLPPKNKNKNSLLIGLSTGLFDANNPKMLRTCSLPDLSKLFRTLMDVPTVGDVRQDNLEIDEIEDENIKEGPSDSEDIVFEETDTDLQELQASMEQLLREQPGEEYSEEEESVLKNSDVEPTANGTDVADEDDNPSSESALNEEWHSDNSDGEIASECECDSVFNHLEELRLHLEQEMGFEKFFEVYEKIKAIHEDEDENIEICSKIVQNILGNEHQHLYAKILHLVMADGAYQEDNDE

[19] = target: Mitogen-activated protein kinase 11 (Homo sapiens) (UniProt Q15759); test: Inhibition of N-terminal GST-fused full length human p38beta (1 to 364 residues) expressed in Escherichia coli expression system using Modified Erktide as substrate at 1 uM in presence of ATP by Mobility shift assay
Sequence of Mitogen-activated protein kinase 11 (Homo sapiens) (Q15759 whole entry, the tested form may be a part): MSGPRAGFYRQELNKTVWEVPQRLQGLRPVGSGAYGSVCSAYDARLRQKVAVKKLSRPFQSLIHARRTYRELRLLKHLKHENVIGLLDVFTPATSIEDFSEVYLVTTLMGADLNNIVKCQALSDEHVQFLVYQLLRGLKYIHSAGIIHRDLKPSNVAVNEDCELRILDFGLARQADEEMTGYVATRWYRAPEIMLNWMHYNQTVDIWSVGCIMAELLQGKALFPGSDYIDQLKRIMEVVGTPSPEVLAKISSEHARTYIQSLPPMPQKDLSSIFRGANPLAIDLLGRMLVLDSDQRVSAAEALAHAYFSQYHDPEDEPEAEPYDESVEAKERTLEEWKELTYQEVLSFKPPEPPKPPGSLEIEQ

[20] = target: BDNF/NT-3 growth factors receptor (Homo sapiens) (UniProt Q16620); test: Inhibition of N-terminal GST-tagged human TRKB cytoplasmic domain (456 to 822 residues) expressed in baculovirus-infected Sf21 cells using Srctide as substrate at 1 uM in presence of ATP by Mobility shift assay
[21] = target: Protein kinase C gamma type (Homo sapiens) (UniProt P05129); test: Inhibition of N-terminal GST-fused human full length PKC-gamma(1 to 697 residues ) expressed in baculovirus expression system using PKC peptide as substrate at 1 uM in presence of ATP by Mobility shift assay
[22] = target: Serine/threonine-protein kinase TAO2 (Homo sapiens) (UniProt Q9UL54); test: Inhibition of N-terminal GST-fused human TAOK2 catalytic domain (1 to 319 residues) expressed in baculovirus expression system using TAOKtide as substrate at 1 uM in presence of ATP by Mobility shift assay
Sequence of Serine/threonine-protein kinase TAO2 (Homo sapiens) (Q9UL54 whole entry, the tested form may be a part): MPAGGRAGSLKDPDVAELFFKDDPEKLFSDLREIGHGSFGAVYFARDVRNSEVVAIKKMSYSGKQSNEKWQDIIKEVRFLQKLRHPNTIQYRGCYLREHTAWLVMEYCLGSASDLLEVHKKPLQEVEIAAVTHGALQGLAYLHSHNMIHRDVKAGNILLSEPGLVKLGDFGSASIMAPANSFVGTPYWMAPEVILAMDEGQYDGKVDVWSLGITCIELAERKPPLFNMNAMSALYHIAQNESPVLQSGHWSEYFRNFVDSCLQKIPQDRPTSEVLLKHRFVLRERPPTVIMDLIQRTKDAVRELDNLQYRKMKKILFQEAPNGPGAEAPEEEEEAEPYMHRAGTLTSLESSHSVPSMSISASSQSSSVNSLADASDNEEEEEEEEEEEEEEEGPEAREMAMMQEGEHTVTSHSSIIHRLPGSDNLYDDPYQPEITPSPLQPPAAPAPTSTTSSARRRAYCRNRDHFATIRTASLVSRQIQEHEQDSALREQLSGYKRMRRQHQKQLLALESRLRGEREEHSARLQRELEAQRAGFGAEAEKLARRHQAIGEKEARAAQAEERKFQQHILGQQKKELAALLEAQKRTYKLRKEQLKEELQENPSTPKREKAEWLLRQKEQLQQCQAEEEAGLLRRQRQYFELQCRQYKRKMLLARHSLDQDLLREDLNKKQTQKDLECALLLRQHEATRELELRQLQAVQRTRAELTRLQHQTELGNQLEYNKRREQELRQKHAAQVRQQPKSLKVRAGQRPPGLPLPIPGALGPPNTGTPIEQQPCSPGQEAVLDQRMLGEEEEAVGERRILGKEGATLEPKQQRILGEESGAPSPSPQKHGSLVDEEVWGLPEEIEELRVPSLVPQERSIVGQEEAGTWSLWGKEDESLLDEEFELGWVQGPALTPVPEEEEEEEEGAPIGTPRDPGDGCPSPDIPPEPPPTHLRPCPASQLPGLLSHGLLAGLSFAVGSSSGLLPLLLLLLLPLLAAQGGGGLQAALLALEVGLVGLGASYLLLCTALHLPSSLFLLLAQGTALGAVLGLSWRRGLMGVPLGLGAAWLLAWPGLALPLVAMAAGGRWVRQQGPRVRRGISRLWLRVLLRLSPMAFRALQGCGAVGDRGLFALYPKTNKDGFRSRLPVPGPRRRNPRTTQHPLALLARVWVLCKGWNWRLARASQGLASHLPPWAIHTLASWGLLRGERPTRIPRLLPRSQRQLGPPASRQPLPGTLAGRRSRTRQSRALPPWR

Row | SMILES | inhibition [1] | inhibition [2] | inhibition [3] | inhibition [4] | inhibition [5] | inhibition [6] | inhibition [7] | inhibition [8] | inhibition [9] | inhibition [10] | inhibition [11] | inhibition [12] | inhibition [13] | inhibition [14] | inhibition [15] | inhibition [16] | inhibition [17] | inhibition [18] | inhibition [19] | inhibition [20] | also measured
1 | Cc1cc(C)c(CNC(=O)c2cc(Cl)c3c(c2C)O[C@@](C)([C@H]2CC[C@H](N(C)C)CC2)O3)c(=O)[nH]1 [VALEMETOSTAT] | -3.4% | -2.8% | -1.3% | -5% | -3% | -3.7% | -7.1% | -3.7% | -4% | 3.5% | -1.9% | -4.9% | -0.7% | -9.1% | -1.9% | -2% | -2.4% | -7% | -5.6% | 0.6% | inhibition [21]: 1%; inhibition [22]: -0.5%
2 | Cc1cc(C)c(CNC(=O)c2cc(Br)c3c(c2C)O[C@@](C)([C@H]2CC[C@H](N(C)C)CC2)O3)c(=O)[nH]1 | -2.5% | 0.2% | -2.4% | -3.1% | -3.9% | -3.7% | -4.5% | -3.3% | -2.6% | 6.7% | -3.3% | -8.9% | -1.2% | -2.8% | -0.5% | 0.7% | 5.9% | -7% | -3.1% | -2.8% | inhibition [21]: 0%; inhibition [22]: -2.8%
